Experiments:
Volasertib/BI6727 = compound: CC[C@@H]1C(=O)N(C)c2cnc(Nc3ccc(C(=O)N[C@H]4CC[C@H](N5CCN(CC6CC6)CC5)CC4)cc3OC)nc2N1C(C)C [Volasertib/BI6727]
[1] = compound: COc1ccc2c(c1)[C@]1(C[C@H]1c1ccc3c(/C=C/c4ccc(CN5C[C@@H](C)O[C@@H](C)C5)cc4)n[nH]c3c1)C(=O)N2
Luminespib/NVP-AUY922 = compound: CCNC(=O)c1noc(-c2cc(C(C)C)c(O)cc2O)c1-c1ccc(CN2CCOCC2)cc1 [Luminespib/NVP-AUY922]
Neratinib/HKI272 = compound: CCOc1cc2ncc(C#N)c(Nc3ccc(OCc4ccccn4)c(Cl)c3)c2cc1NC(=O)/C=C/CN(C)C [Neratinib/HKI272]
[2] = compound: CO[C@@H](C)Cn1c(=O)n(C)c2cnc3ccc(-c4cncc(C(C)(C)O)c4)cc3c21
R0-3306 = compound: C1=CC2=C(C=CC(=C2)C=C3C(=O)NC(=NCC4=CC=CS4)S3)N=C1 [R0-3306]
SHP099 = compound: CC1(CCN(CC1)C2=CN=C(C(=N2)N)C3=C(C(=CC=C3)Cl)Cl)N [SHP099]
[3] = compound: CCc1cnn2c(NCc3ccc[n+]([O-])c3)cc(N3CCCC[C@H]3CCO)nc12
THZ1 = compound: CN(C)C/C=C/C(=O)Nc1ccc(C(=O)Nc2cccc(Nc3ncc(Cl)c(-c4c[nH]c5ccccc45)n3)c2)cc1 [THZ1]
Vorinostat = compound: O=C(CCCCCCC(=O)Nc1ccccc1)NO [Vorinostat]
Olaparib/AZD2281 = compound: O=C(c1cc(Cc2n[nH]c(=O)c3ccccc23)ccc1F)N1CCN(C(=O)C2CC2)CC1 [Olaparib/AZD2281]
AZD7762 = compound: NC(=O)Nc1cc(-c2cccc(F)c2)sc1C(=O)N[C@H]1CCCNC1 [AZD7762]
Flavopiridol = compound: CN1CC[C@H](c2c(O)cc(O)c3c(=O)cc(-c4ccccc4Cl)oc23)[C@H](O)C1 [Flavopiridol]
Dasatinib = compound: Cc1nc(Nc2ncc(C(=O)Nc3c(C)cccc3Cl)s2)cc(N2CCN(CCO)CC2)n1 [Dasatinib]
Alpelisib/BYL719 = compound: Cc1nc(NC(=O)N2CCC[C@H]2C(N)=O)sc1-c1ccnc(C(C)(C)C(F)(F)F)c1 [Alpelisib/BYL719]
AZD5363 = compound: NC1(C(=O)N[C@@H](CCO)c2ccc(Cl)cc2)CCN(c2nc[nH]c3nccc2-3)CC1 [AZD5363]
LEE011/Ribociclib = compound: CN(C)C(=O)c1cc2cnc(Nc3ccc(N4CCNCC4)cn3)nc2n1C1CCCC1 [LEE011/Ribociclib]
Torin2 = compound: C1=CC(=CC(=C1)N2C(=O)C=CC3=CN=C4C=CC(=CC4=C32)C5=CN=C(C=C5)N)C(F)(F)F [Torin2]
Ipatasertib/GDC0068 = compound: CC(C)NC[C@@H](C(=O)N1CCN(c2ncnc3c2[C@H](C)C[C@H]3O)CC1)c1ccc(Cl)cc1 [Ipatasertib/GDC0068]
Doxorubicin = compound: COc1cccc2c1C(=O)c1c(O)c3c(c(O)c1C2=O)C[C@@](O)(C(=O)CO)C[C@@H]3O[C@H]1C[C@H](N)[C@H](O)[C@H](C)O1 [Doxorubicin]
Cabozantinib = compound: COc1cc2nccc(Oc3ccc(NC(=O)C4(C(=O)Nc5ccc(F)cc5)CC4)cc3)c2cc1OC [Cabozantinib]
AZD2014 = compound: CNC(=O)c1cccc(-c2ccc3c(N4CCOC[C@@H]4C)nc(N4CCOC[C@@H]4C)nc3n2)c1 [AZD2014]
[4] = compound: CCN1CCN(Cc2ccc(Nc3ncc(F)c(-c4cc(F)c5nc(C)n(C(C)C)c5c4)n3)nc2)CC1
[5] = compound: CCCCOc1c(C(=O)c2c(F)cc(C)cc2F)c[nH]c2nncc1-2
ABT-737 = compound: CN(C)CC[C@H](CSc1ccccc1)Nc1ccc(S(=O)(=O)NC(=O)c2ccc(N3CCN(Cc4ccccc4-c4ccc(Cl)cc4)CC3)cc2)cc1[N+](=O)[O-] [ABT-737]
[6] = compound: CC(=O)c1c(C)c2cnc(Nc3ccc(N4CCNCC4)cn3)nc2n(C2CCCC2)c1=O
[7] = compound: CC(=O)Nc1cccc(-n2c(=O)n(C3CC3)c(=O)c3c(Nc4ccc(I)cc4F)n(C)c(=O)c(C)c32)c1
[8] = compound: CCC1=CN=CN=C1N2CCN(CC2)CC3=NC4=C(N3)C=C(C=C4)C(F)(F)F
AZD1775 = compound: C=CCn1c(=O)c2cnc(Nc3ccc(N4CCN(C)CC4)cc3)nc2n1-c1cccc(C(C)(C)O)n1 [AZD1775]
THZ-P1-2 = compound: CN(C)C/C=C/C(=O)NC1=CC=C(C=C1)C(=O)NC2=CC=CC(=C2)NC3=NC=NC(=C3)C4=CNC5=CC=CC=C54 [THZ-P1-2]
BSJ-03-123 = compound: CC(=O)c1c(C)c2cnc(Nc3ccc(N4CCN(CCOCCOCCOCCNC(=O)COc5cccc6c5C(=O)N(C5CCC(=O)NC5=O)C6=O)CC4)cn3)nc2n(C2CCCC2)c1=O [BSJ-03-123]
Saracatinib/AZD0530 = compound: CN1CCN(CCOc2cc(OC3CCOCC3)c3c(Nc4c(Cl)ccc5c4OCO5)ncnc3c2)CC1 [Saracatinib/AZD0530]
Taselisib/GDC0032 = compound: Cc1nc(-c2cn3c(n2)-c2ccc(-c4cnn(C(C)(C)C(N)=O)c4)cc2OCC3)n(C(C)C)n1 [Taselisib/GDC0032]
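Further: breast cancer and non-malignant breast epithelial cell lines, Deep Dye Drop or Dye Drop imaging, nine half-log doses, GR normalized to time-zero plates and DMSO-only controls.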

Cell Line	GR50, 72 h (Volasertib/BI6727) [µM]	GR50, 72 h [1] [µM]	GR50, 72 h (Luminespib/NVP-AUY922) [µM]	GR50, 72 h (Neratinib/HKI272) [µM]	GR50, 72 h [2] [µM]	GR50, 72 h (R0-3306) [µM]	GR50, 72 h (SHP099) [µM]	GR50, 72 h [3] [µM]	GR50, 72 h (THZ1) [µM]	GR50, 72 h (Vorinostat) [µM]	GR50, 72 h (Olaparib/AZD2281) [µM]	GR50, 72 h (AZD7762) [µM]	GR50, 72 h (Flavopiridol) [µM]	GR50, 72 h (Dasatinib) [µM]	GR50, 72 h (Alpelisib/BYL719) [µM]	GR50, 72 h (AZD5363) [µM]	GR50, 72 h (LEE011/Ribociclib) [µM]	GR50, 72 h (Torin2) [µM]	GR50, 72 h (Ipatasertib/GDC0068) [µM]	GR50, 72 h (Doxorubicin) [µM]	GR50, 72 h (Cabozantinib) [µM]	GR50, 72 h (AZD2014) [µM]	GR50, 72 h [4] [µM]	GR50, 72 h [5] [µM]	GR50, 72 h (ABT-737) [µM]	GR50, 72 h [6] [µM]	GR50, 72 h [7] [µM]	GR50, 72 h [8] [µM]	GR50, 72 h (AZD1775) [µM]	GR50, 72 h (THZ-P1-2) [µM]	GR50, 72 h (BSJ-03-123) [µM]	GR50, 72 h (Saracatinib/AZD0530) [µM]	GR50, 72 h (Taselisib/GDC0032) [µM]
HCC1143	0.00459	0.00523	0.00391	0.672	0.286	1.66	> 10	0.0151	0.0265	0.91	8.83	0.0557	0.17	0.139	9.88	> 10	3.65	0.0447	> 10	0.00927	> 10	0.413	0.0703	0.00177	6.19	0.277	0.00883	> 10	0.703	5.01	1.87	3.03	0.215
HCC1395	0.00321	0.00377	0.005	0.958	0.00497	0.463	> 10	0.0124	0.022	3.27	1.87	0.0217	0.126	0.0748	> 10	0.135	3.67	0.0146	0.926	0.0179	5.55	0.0101	0.112	0.00575	> 10	0.0952	0.172	> 10	0.00604	2.89	1.12	3.76	2.14
HCC1419	0.0207	0.00375	0.007	0.00115	< 0.001	8.88	> 10	0.0267	0.0611	1.8	> 10	0.0686	0.191	0.825	0.669	> 10	> 10	0.0055	> 10	0.0251	> 10	< 0.001	0.0969	0.65	9.85	0.462	0.0308	5.28	2.59	6.2	0.491	0.916	0.00918
HCC1806	0.0028	0.00322	0.0109	0.78	0.347	5.39	> 10	0.0134	0.0688	1.13	> 10	0.0166	0.168	0.0537	> 10	> 10	> 10	0.0358	> 10	0.0159	> 10	1.82	0.554	0.278	> 10	> 3.16	> 1	> 10	0.0128	4.69	2.56	1.73	1.55
HCC1937	0.0119	0.00432	0.0114	1.46	0.139	5.17	> 10	0.0218	0.0648	1.91	> 10	0.17	0.168	0.113	> 10	> 10	> 10	0.0934	> 10	0.0128	> 10	0.0304	4.82	< 0.001	5.77	> 3.16	> 1	> 10	0.00892	4.05	9.94	> 10	1.23
HCC1954	0.00659	0.00444	0.0103	0.0672	< 0.001	6.63	> 10	0.0126	0.0995	1.43	> 10	0.127	0.128	1.86	1.23	3.06	> 10	0.0097	1.43	0.00718	> 10	0.0484	0.302	< 0.001	9.94	> 3.16	0.0167	> 10	1.58	5.9	1.07	2.12	0.00701
HS578T	0.00257	0.00238	0.0033	0.644	< 0.001	4.28	> 10	0.00894	0.0183	0.904	8.91	0.0151	0.148	0.0386	> 10	4.82	2.33	0.0071	4.59	0.00411	6.38	0.0683	0.0776	0.0165	> 10	0.156	0.00636	> 10	0.0155	> 10	1.45	4.04	0.575

— the supplement of paper PMC9663587
